In ChEMBL document CHEMBL3734723, “Synthesis and anticancer activity of 6-heteroarylcoumarins” (2015) one finds growth data, which are given here for twelve molecules.

Common to all, as to format: functional
Test [1] can be described thus: Cytotoxicity against human OVCAR8 cells assessed as cell growth at 10 uM incubated for 48 hrs by sulforhodamine B assay. Particulars: OVCAR-8, 48 h, read-out: Activity. Background: The SRB assay estimates cell density from bound dye.
The test system of test [2] is NCI-H522. Put plainly: Cytotoxicity against human NCI-H522 cells assessed as cell growth at 10 uM incubated for 48 hrs by sulforhodamine B assay. The conditions noted are these: NCI-H522, 48 h, read-out: Activity.
Test [3] in a line: Cytotoxicity against human UO31 cells assessed as cell growth at 10 uM incubated for 48 hrs by sulforhodamine B assay. The conditions noted are these: UO-31, 48 h, read-out: Activity.
The nature of test [4]: Cytotoxicity against human RPMI8226 cells assessed as cell growth at 10 uM incubated for 48 hrs by sulforhodamine B assay. The conditions noted are these: RPMI-8226, 48 h, read-out: Activity.
Test [5] can be described thus: Cytotoxicity against human SF295 cells assessed as cell growth at 10 uM incubated for 48 hrs by sulforhodamine B assay. Particulars: SF-295, 48 h, read-out: Activity.
The subject of test [6] is SK-MEL-5. Nature of the test: Cytotoxicity against human SK-MEL-5 cells assessed as cell growth at 10 uM incubated for 48 hrs by sulforhodamine B assay. The conditions noted are these: SK-MEL-5, 48 h, read-out: Activity.
Test [7] is described as follows: Cytotoxicity against human UACC62 cells assessed as cell growth at 10 uM incubated for 48 hrs by sulforhodamine B assay. Particulars: UACC-62, 48 h, read-out: Activity.
The subject of test [8] is T47D. Nature of the test: Cytotoxicity against human T47D cells assessed as cell growth at 10 uM incubated for 48 hrs by sulforhodamine B assay. The conditions noted are these: read-out: Activity.
Test [9] is described as follows: Cytotoxicity against human PC3 cells assessed as cell growth at 10 uM incubated for 48 hrs by sulforhodamine B assay. Particulars: PC-3, 48 h, read-out: Activity.
The subject of test [10] is CCRF-CEM. Nature of the test: Cytotoxicity against human CCRF-CEM cells assessed as cell growth at 10 uM incubated for 48 hrs by sulforhodamine B assay. The conditions noted are these: read-out: Activity.
A short description of test [11]: Cytotoxicity against human HOP92 cells assessed as cell growth at 10 uM incubated for 48 hrs by sulforhodamine B assay. The conditions noted are these: HOP-92, 48 h, read-out: Activity.
Test [12] in a line: Cytotoxicity against human HL-60(TB) cells assessed as cell growth at 10 uM incubated for 48 hrs by sulforhodamine B assay. Particulars: HL-60, 48 h, read-out: Activity.
The subject of test [13] is SR. Put plainly: Cytotoxicity against human SR cells assessed as cell growth at 10 uM incubated for 48 hrs by sulforhodamine B assay. Particulars: read-out: Activity.
The subject of test [14] is MDA-MB-468. Put plainly: Cytotoxicity against human MDA-MB-468 cells assessed as cell growth at 10 uM incubated for 48 hrs by sulforhodamine B assay. Particulars: MDA-MB-468, 48 h, read-out: Activity.
The test system of test [15] is K562. Nature of the test: Cytotoxicity against human K562 cells assessed as cell growth at 10 uM incubated for 48 hrs by sulforhodamine B assay. The conditions noted are these: K562, 48 h, read-out: Activity.
The nature of test [16]: Cytotoxicity against human […] cells assessed as cell growth at 10 uM incubated for 48 hrs by sulforhodamine B assay. The conditions noted are these: read-out: Activity.
Test [17] in a line: Cytotoxicity against human MOLT4 cells assessed as cell growth at 10 uM incubated for 48 hrs by sulforhodamine B assay. Particulars: MOLT-4, 48 h, read-out: Activity.
The subject of test [18] is ACHN. Put plainly: Cytotoxicity against human ACHN cells assessed as cell growth at 10 uM incubated for 48 hrs by sulforhodamine B assay. The conditions noted are these: read-out: Activity.
The subject of test [19] is 786-0. Put plainly: Cytotoxicity against human 786-0 cells assessed as cell growth at 10 uM incubated for 48 hrs by sulforhodamine B assay. Particulars: 786-0, 48 h, read-out: Activity.
Test [20] is described as follows: Cytotoxicity against human HCC2998 cells assessed as cell growth at 10 uM incubated for 48 hrs by sulforhodamine B assay. The conditions noted are these: HCC 2998, 48 h, read-out: Activity.
Test [21] deals with NCI-H460. Put plainly: Cytotoxicity against human NCI-H460 cells assessed as cell growth at 10 uM incubated for 48 hrs by sulforhodamine B assay. Particulars: NCI-H460, 48 h, read-out: Activity.
For test [22], the system named is EKVX. Put plainly: Cytotoxicity against human EKVX cells assessed as cell growth at 10 uM incubated for 48 hrs by sulforhodamine B assay. Particulars: read-out: Activity.
Test [23] can be described thus: Cytotoxicity against human NCI-ADR-RES cells assessed as cell growth at 10 uM incubated for 48 hrs by sulforhodamine B assay. Particulars: read-out: Activity.
In test [24] the test system is NCI-H23. Nature of the test: Cytotoxicity against human NCI-H23 cells assessed as cell growth at 10 uM incubated for 48 hrs by sulforhodamine B assay. The conditions noted are these: NCI-H23, 48 h, read-out: Activity.
Test [25] deals with MDA-MB-435. Nature of the test: Cytotoxicity against human MDA-MB-435 cells assessed as cell growth at 10 uM incubated for 48 hrs by sulforhodamine B assay. Particulars: MDA-MB-435, 48 h, read-out: Activity.
A short description of test [26]: Cytotoxicity against human LOXIMVI cells assessed as cell growth at 10 uM incubated for 48 hrs by sulforhodamine B assay. Particulars: LOX IMVI, read-out: Activity.
The test system of test [27] is MCF7. Put plainly: Cytotoxicity against human MCF7 cells assessed as cell growth at 10 uM incubated for 48 hrs by sulforhodamine B assay. Particulars: MCF7, 48 h, read-out: Activity.
Test [28] relates to A549. Put plainly: Cytotoxicity against human A549 cells assessed as cell growth at 10 uM incubated for 48 hrs by sulforhodamine B assay. The conditions noted are these: A549, 48 h, read-out: Activity.
The nature of test [29]: Cytotoxicity against human HCT15 cells assessed as cell growth at 10 uM incubated for 48 hrs by sulforhodamine B assay. Particulars: HCT-15, 48 h, read-out: Activity.
Test [30] can be described thus: Cytotoxicity against human OVCAR4 cells assessed as cell growth at 10 uM incubated for 48 hrs by sulforhodamine B assay. Particulars: OVCAR-4, 48 h, read-out: Activity.
The subject of test [31] is KM12. Nature of the test: Cytotoxicity against human KM12 cells assessed as cell growth at 10 uM incubated for 48 hrs by sulforhodamine B assay. Particulars: KM12, 48 h, read-out: Activity.
A short description of test [32]: Cytotoxicity against human HCT116 cells assessed as cell growth at 10 uM incubated for 48 hrs by sulforhodamine B assay. The conditions noted are these: HCT-116, 48 h, read-out: Activity.
Test [33] is described as follows: Cytotoxicity against human OVCAR3 cells assessed as cell growth at 10 uM incubated for 48 hrs by sulforhodamine B assay. The conditions noted are these: OVCAR-3, 48 h, read-out: Activity.

As to `Cc1c(O)c(-c2ccnc(S)n2)cc2c3c(c(=O)oc12)CCCC3`, the growth at 10 µM in [1] amounted to 64.5%; in test [2], 68.8%; in [3], 60.8%.

`CCCc1cc(=O)oc2c(C)c(O)c(-c3ccc4c(=O)n(-c5ccccc5)nc-4[nH]3)cc12`: the growth at 10 µM in [4] stood at 65.8%; in test [5] it was 69.1%; in [6], 67.1%; in test [7], 60.6%.

Take `Cc1c(O)c(-c2cc3ccccc3[nH]2)cc2c3c(c(=O)oc12)CCC3`: the growth at 10 µM is 69.8% in test [8]; 67% in [9]; 51.8% in test [4]; 61.6% in test [2]; 59.1% in [7].

As to `CCCCc1cc(=O)oc2c(C)c(O)c(-c3ccnc(NC#N)n3)cc12`, in test [10], the growth at 10 µM was -58.3%.

Regarding `CCCCc1cc(=O)oc2c(C)c(O)c(-c3ccnc4nnnn34)cc12`, the growth at 10 µM in test [3] turned out to be 89.4%.

In the case of `Cc1c(O)c(-c2ccnc(N)n2)cc2c3c(c(=O)oc12)CCC3`, the growth at 10 µM in test [11] is -5.18%; in test [12], -34.4%; in test [4], 55.6%; in [10], -73.3%; in [13], 4.79%.

As for `Cc1cc(=O)oc2c(C)c(O)c(-c3cc4ccccc4[nH]3)cc12`, the growth at 10 µM in test [14] was found to be 64.3%; in test [9] it was 66.5%; in [4], 43.8%; in test [6], 48.5%; in [2] it was 58.2%; in test [7], 48.8%. The growth at 10 µM in test [3] was 51.8%; in test [15] it was 59.3%; in test [13] it was 65.2%.

For the molecule `CCCc1cc(=O)oc2c(C)c(O)c(-c3ccc(C#N)c(=O)[nH]3)cc12`, the growth at 10 µM in test [16] was 90%.

For `Cc1cc(=O)oc2c(C)c(O)c(-c3cc[nH]n3)cc12`, the growth at 10 µM in test [12] is -10.9%; in test [4], 64.3%; in test [10] it was -68.5%.

Turning to `Cc1cc(=O)oc2c(C)c(O)c(-c3ccnc4nc5ccccc5n34)cc12`, the growth at 10 µM in [10] is -81.9%.

`Cc1c(O)c(-c2cc[nH]n2)cc2c3c(c(=O)oc12)CCC3`: the growth at 10 µM in [11] is 65.7%; in test [17] it was -36%; in test [12] it was -20.4%; in [10], -69.3%; in test [13], 16.5%.

`Cc1c(O)c(-c2cc3ccccc3[nH]2)cc2c3c(c(=O)oc12)CCCC3`: the growth at 10 µM turned out to be 66.9% in test [18]; 36.7% in [11]; 69.9% in test [19]; 53.7% in test [20]; 41.6% in [14]; 62.2% in test [17]. For the same molecule, the growth at 10 µM in [21] worked out at 47.8%; in test [9] it was 52.8%; in test [22], 60.7%; in test [4], 38.7%; in [23], 49.2%; in [24], 31.5%. For the same molecule, the growth at 10 µM came to 65.3% in test [25]; 68.2% in [26]; 67.3% in test [27]; 65.7% in [5]; 58.5% in [28]; 52.2% in [6]. The growth at 10 µM in test [2] worked out at 39.6%; in test [7] it was 48.2%; in test [29], 67.3%; in [30], 61.6%; in [3] it was 44%; in test [15], 44.3%. Also, the growth at 10 µM in test [31] was 64.8%; in test [13] it was 60.2%; in [32], 51.7%; in test [33], 64.6%; in test [16], 68.8%.
